From article PMC11530130, “Peripherally restricted PICK1 inhibitor mPD5 ameliorates pain behaviors in murine inflammatory and neuropathic pain models” (JCI Insight, 2024)
“And” between values parts separate entries of the source, which are not always exact repeats. Identical values can stand only once.

Experiments:
Type in all cases: in vivo, mouse
naive mice [1] = assay: Conditioned place preference (CPP); settings: for locomotion during conditioning compared with PBS / time in the drug-paired compartment during the posttest compared with PBS: naive mice
Procedure: compartment and that a single exposure of psychostimulants in the grey compartment sufficiently changes the preference towards that compartment (9-11). For further details of the setup, we refer to (10). Experiments lasted three days with exposure sessions on days one and two and a preference test on day three. On each day, animals were moved from the housing facility to the experimental room and allowed to acclimatize for at least 60 min before initiation of the experiment. mPD5 was paired with the grey compartment, known to be the least preferred compartment (10, 11). All mice from a cage were tested at the same time, but not all were given the same treatment. Mice were weighed and injected s.c. with PBS or 30 μmol/kg mPD5. For the sePP on CFA-injected mice, the injury was induced as described in “Induction of inflammatory pain (CFA model)”-section. sePP was run on day 3-5 after CFA-injection, and von Frey was performed on days 0, 2, and 5 as described in the “Mechanically-evoked pain (von Frey)”-section.
Conditioned place preference.
CPP was performed in Med-Associates square behavioral chambers fitted with beam-break movement detection. Chambers are split in two (27.3 x 13.5 cm each) with a red Plexiglas wall (allowing penetrance of the beams) and a predictable-preference design. Least-preferred compartment: white walls + floor and a transparent lid. Preferred compartment: horizontal grey and black stripes on the wall and lid with a light grey upside-down Lego® floor. Mice can freely move between the two compartments through a 4x4 cm opening in the separating wall during pretest and posttest but are confined to one compartment during conditionings.
Pretest (DAY 1): To test the basal preference of the mice, they were placed in the chamber to freely move between the two compartments for 30 min. Time spent in each compartment was […]
compartment was used to define three even groups.
Conditioning (DAY 2-9): Mice were injected s.c. with PBS, morphine (10 mg/kg) (RH Pharmacy, Denmark, Vnr. 475249), or 10 μmol/kg mPD5 immediately before being placed in and confined to the appropriate compartment for 40 min. Drug was paired to the least-preferred compartment, conditioning was alternated so that mice were never placed in the same compartment two days in a row, and the day on which they were exposed to drug was […]
Preference test (DAY 10): Mice were allowed to freely move between the two compartments […]
Ultrasonic vocalisation (USV) recordings.
Mice were left in Med-Associates square behavioral chambers (27 cm x 27 cm) to freely roam around for 60 min, four days in a row. The first two days were for habituation, but on the third and fourth days, USV recordings were performed using an Avisoft UltraSoundGate 416Hb recording interface (Model CM16-CMPA, Avisoft Bioacoustics, Germany) at a sampling rate of 250,000 Hz in 16-bit format kindly loaned by Morgan Thomsen and Simone Tonetto (Department of Neuroscience, University of Copenhagen, Copenhagen). On day three, both control and SNI mice were placed directly in the chambers and recorded for 60 min. On day four, control mice were injected s.c. with PBS, and SNI mice were injected with either 10 μmol/kg mPD5 or PBS immediately before being placed in the chambers and recorded for 60 min. The recordings were analyzed using the Avisoft SASLab Pro software (Version 5.02.07, Avisoft Bioacoustics) as described in (12), applying a fast fourier transformation (FFT) (1024 FTT length, 100% frame size, Blackman window, and 87.5% time window overlap).
Spectrograms were produced at a frequency resolution of 244 Hz and a time resolution of 0.512 ms. Spectrogram analysis was performed using an automatic whistle-tracking algorithm with an element separation threshold of -45 dB, 1 ms minimal duration, and a hold time of 10 ms.

[2] = system: mice, spared nerve injury (SNI) model; assay: Single exposure place preference (sePP), SNI mice; parameters: time spent in the paired compartment, individual mice: reference not given here
Procedure: Single exposure place preference.
Initial perception of the drugs was measured by single exposure place preference experiments performed in an elongated three compartment apparatus (67.5 cm x 24 cm) with a biased design of different floor textures and wall patterns and a neutral zone in the middle. We have […]
compartment and that a single exposure of psychostimulants in the grey compartment sufficiently changes the preference towards that compartment (9-11). For further details of the setup, we refer to (10). Experiments lasted three days with exposure sessions on days one and two and a preference test on day three. […]
Mice were left in Med-Associates square behavioral chambers (27 cm x 27 cm) to freely roam around for 60 min, four days in a row. […] On day three, both control and SNI mice were placed directly in the chambers and recorded for 60 min. On day four, control mice were injected s.c. with PBS, and SNI mice were injected with either 10 μmol/kg mPD5 or PBS immediately before being placed in the chambers and recorded for 60 min. The recordings were analyzed using the Avisoft SASLab Pro software (Version 5.02.07, Avisoft Bioacoustics) as described in (12), applying a fast fourier transformation (FFT) (1024 FTT length, 100% frame size, Blackman window, and 87.5% time window overlap). […]

naive mice [3] = assay: Barnes maze (spatial learning and memory, reversal learning); settings: for Barnes maze, count per hole (Fig S8D) / Barnes maze, count per hole (Fig S8E): individual animals;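 as to Barnes maze, count per hole (Fig S8D): Nose pokes per hole during a probe trial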;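 as to Barnes maze, count per hole (Fig S8E): Nose pokes per hole during a probe trial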
Procedure: Spatial learning and memory.
On each day, animals were moved from the housing facility to the experimental room and allowed to acclimatize for at least 60 min before initiation of the experiment. All drugs used (PBS or 10 μmol/kg mPD5) were injected s.c. in a 10 μl/g body weight volume 60 min before first placement on the Barnes’ maze on day 1-9 of the experiment. The experiment was divided into Barnes maze habituation, spatial acquisition (training) and probe trials. During habituation to the Barnes maze itself, animals were placed under a cylinder in the middle of the Barnes maze for 10 seconds and then gently guided to the escape box and left there for two min. During spatial acquisition (training), each mouse was placed under a cylinder in the middle of the Barnes maze for 10 sec followed by up to three min of free exploration of the Barnes maze.
Once the animal entered the escape cage, it was left there for one min before being transferred back to its home cage for 15-20 min. This training was performed four times per day per mouse.
During probe trials the reference memory of the animal was tested by placing each mouse under a cylinder in the middle of the Barnes maze for 10 sec followed by 90 sec of free exploration of the Barnes maze with no escape cage. On days 6-8, the escape hole was moved 90 degrees, and all mice went through the second bout of training. On day nine, a second probe trial was performed testing the reversal learning of the mice. […]
Single exposure place preference. […]

## CN1CC[C@]23c4c5ccc(O)c4O[C@H]2[C@@H](O)C=C[C@H]3[C@H]1C5 [morphine]
Naive mice [1]; 10 mg/kg
  Conditioned place preference, Fig 6O, individual mice: 641.2 and 758.05 and 523.1 and 617.25 and 422.75 and 543.85 and 370.9 and 516.75
Naive mice [1]; Cond1, 10 mg/kg
  CPP conditioning session value, Fig 6N, individual mice: 9137.98 and 12057.9 and 7914.76 and 12165.9 and 13969.3 and 7487.52 and 2666.42 and 10528.9
Naive mice [1]; Cond2, 10 mg/kg
  CPP conditioning session value, Fig 6N, individual mice: 15370.1 and 15969.7 and 11493.6 and 16698.2 and 17811.8 and 8242.22 and 9139.38 and 16599.9
Naive mice [1]; Cond3, 10 mg/kg
  CPP conditioning session value, Fig 6N, individual mice: 15699.6 and 17306.6 and 14219.9 and 18863.2 and 19954.9 and 11799.1 and 7739.36 and 18695.7
Naive mice [1]; Cond4, 10 mg/kg
  CPP conditioning session value, Fig 6N, individual mice: 14707.1 and 15254.9 and 15074.4 and 17950.9 and 21599.6 and 11535.1 and 8924.2 and 17697.5
Naive mice [1]; s.c. 10 mg/kg
  locomotion during conditioning compared with PBS: significantly increased locomotion
  time in the drug-paired compartment during the posttest compared with PBS: significantly more time in the drug-paired compartment

## CCCCCCCCCCCCCC(=O)N(CCOCCOCCC(=O)N[C@@H](Cc1c[nH]cn1)C(=O)N[C@@H](Cc1c[nH]c2ccccc12)C(=O)N[C@@H](CC(C)C)C(=O)N[C@@H](CCCCN)C(=O)N[C@H](C(=O)O)C(C)C)CCOCCOCCC(=O)N[C@@H](Cc1c[nH]cn1)C(=O)N[C@@H](Cc1c[nH]c2ccccc12)C(=O)N[C@@H](CC(C)C)C(=O)N[C@@H](CCCCN)C(=O)N[C@H](C(=O)O)C(C)C [mPD5, myristoyl-NPEG4-(HWLKV)2]
[2]; SNI mice conditioned with 30 μmol/kg
  time spent in the paired compartment, individual mice: 0.9648 and 1.369 and 0.722 and 0.8519 and 0.9815 and 0.6715 and 0.5887 and 0.7233 and 1.085 and 1.235 and 0.7664
[2]; SNI, male mice, s.c. 30 μmol/kg
  time spent in the paired chamber compared to PBS (sePP): did not change the time spent in the paired chamber
Naive mice [1]; 10 umol/kg
  Conditioned place preference, Fig 6O, individual mice: 422.4 and 657.8 and 145.75 and 377.8 and 709.7 and 623.7 and 240.55 and 244.05
Naive mice [1]; Cond1, 10 umol/kg
  CPP conditioning session value, Fig 6N, individual mice: 2308.61 and 1809.85 and 2224.56 and 2674.86 and 871.493 and 1226.84 and 1378.23 and 2217.21
Naive mice [1]; Cond2, 10 umol/kg
  CPP conditioning session value, Fig 6N, individual mice: 1180.49 and 1059.56 and 1212.87 and 2147.54 and 783.988 and 1076.18 and 1174.28 and 2455.85
Naive mice [1]; Cond3, 10 umol/kg
  CPP conditioning session value, Fig 6N, individual mice: 1906.76 and 766.515 and 1139.87 and 2374.29 and 1205.41 and 1378.46 and 1356.35 and 1697.51
Naive mice [1]; Cond4, 10 umol/kg
  CPP conditioning session value, Fig 6N, individual mice: 2079.11 and 1457.65 and 2495.22 and 2149.64 and 1597.67 and 2463.25 and 958.529 and 1951.51
Naive mice [1]; s.c. 10 μmol/kg
  locomotion during conditioning compared with PBS: did not affect locomotion
  time in the drug-paired compartment during the posttest compared with PBS: did not
Naive mice [3]; hole position 1
  Barnes maze, count per hole (Fig S8D): 2 (3×) and 1 (2×) and 0 (2×) and 3 (2×)
  Barnes maze, count per hole (Fig S8E): 3 (6×) and 1 (2×) and 2
Naive mice [3]; hole position 2
  Barnes maze, count per hole (Fig S8D): 0 (5×) and 1 (3×) and 2
  Barnes maze, count per hole (Fig S8E): 0 (6×) and 1 (3×)
Naive mice [3]; hole position 3
  Barnes maze, count per hole (Fig S8D): 1 (4×) and 2 (3×) and 0 (2×)
  Barnes maze, count per hole (Fig S8E): 1 (7×) and 0 and 2
Naive mice [3]; hole position 4
  Barnes maze, count per hole (Fig S8D): 0 (4×) and 2 (2×) and 1 (3×)
  Barnes maze, count per hole (Fig S8E): 1 (6×) and 2 (2×) and 0
Naive mice [3]; hole position -1
  Barnes maze, count per hole (Fig S8D): 2 (3×) and 3 and 1 (2×) and 6 and 0 and 4
  Barnes maze, count per hole (Fig S8E): 3 (4×) and 0 (2×) and 1 and 2 and 4
Naive mice [3]; hole position -2
  Barnes maze, count per hole (Fig S8D): 0 (8×) and 1
  Barnes maze, count per hole (Fig S8E): 0 (4×) and 1 (4×) and 2
Naive mice [3]; hole position -3
  Barnes maze, count per hole (Fig S8D): 0 (6×) and 1 (2×) and 2
  Barnes maze, count per hole (Fig S8E): 1 (5×) and 0 (2×) and 2 (2×)
Naive mice [3]; hole position -4
  Barnes maze, count per hole (Fig S8D): 0 (6×) and 2 (2×) and 1
  Barnes maze, count per hole (Fig S8E): 1 (6×) and 0 (2×) and 2
Naive mice [3]; hole position -5
  Barnes maze, count per hole (Fig S8D): 0 (6×) and 2 (2×) and 1
  Barnes maze, count per hole (Fig S8E): 1 (4×) and 0 (2×) and 2 (2×) and 3
Naive mice [3]; hole position -6
  Barnes maze, count per hole (Fig S8D): 0 (6×) and 3 and 1 (2×)
  Barnes maze, count per hole (Fig S8E): 1 (3×) and 0 (2×) and 2 (3×) and 3
Naive mice [3]; hole position -7
  Barnes maze, count per hole (Fig S8D): 0
  Barnes maze, count per hole (Fig S8E): 0
Naive mice [3]; hole position Goal
  Barnes maze, count per hole (Fig S8D): 2 (2×) and 3 (2×) and 6 (2×) and 1 (2×) and 4
  Barnes maze, count per hole (Fig S8E): 4 (3×) and 3 (3×) and 2 (2×) and 1
Naive mice [3]; s.c. 10 μmol/kg 60 minutes before placement, after 4 days of training
  latency to reach target and total distance moved, probe test day 5: no difference
Naive mice [3]; s.c. 10 μmol/kg 60 minutes before placement, probe test day 9
  latency to reach the target and total distance moved following reversal learning: no difference was observed
Naive mice [3]; s.c. 10 μmol/kg, both probe tests
  distribution of nose pokes between the holes: did not differ between groups
